Columns and labels:
ABL1 = ABL1 (Homo sapiens, UniProt P00519); experiment: SelectScreen biochemical kinase profiling; type: binding; conditions: 100 nM, read-out: Inhibition (% of control) at 100 nM
Experimental: (§1) Kinase inhibition data were obtained from SelectScreen® Biochemical Kinase Profiling Service.
(§2) More specifically, test compounds were screened in 160 nL of a 1% DMSO solution in the well of a 384-well plate; kinase/antibody mixtures (8 μL) were diluted to a 2-fold working concentration in an appropriate kinase buffer (3.84 μL) and a 4-fold AlexaFluor® labeled tracer (4 μL) was prepared in the kinase buffer; incubation of test solutions was conducted at room is temperature for 60 minutes; and readout on a fluorescence plate reader was recorded and analyzed.

ABL1 T315I = ABL1 T315I (Homo sapiens, UniProt P00519, T315I); experiment: SelectScreen biochemical kinase profiling; type: binding; conditions: 100 nM, read-out: Inhibition (% of control) at 100 nM
Experimental: as §1, §2

KIT = KIT (Homo sapiens, UniProt P10721); experiment: SelectScreen biochemical kinase profiling; type: binding
Chain of KIT (P10721 26-976): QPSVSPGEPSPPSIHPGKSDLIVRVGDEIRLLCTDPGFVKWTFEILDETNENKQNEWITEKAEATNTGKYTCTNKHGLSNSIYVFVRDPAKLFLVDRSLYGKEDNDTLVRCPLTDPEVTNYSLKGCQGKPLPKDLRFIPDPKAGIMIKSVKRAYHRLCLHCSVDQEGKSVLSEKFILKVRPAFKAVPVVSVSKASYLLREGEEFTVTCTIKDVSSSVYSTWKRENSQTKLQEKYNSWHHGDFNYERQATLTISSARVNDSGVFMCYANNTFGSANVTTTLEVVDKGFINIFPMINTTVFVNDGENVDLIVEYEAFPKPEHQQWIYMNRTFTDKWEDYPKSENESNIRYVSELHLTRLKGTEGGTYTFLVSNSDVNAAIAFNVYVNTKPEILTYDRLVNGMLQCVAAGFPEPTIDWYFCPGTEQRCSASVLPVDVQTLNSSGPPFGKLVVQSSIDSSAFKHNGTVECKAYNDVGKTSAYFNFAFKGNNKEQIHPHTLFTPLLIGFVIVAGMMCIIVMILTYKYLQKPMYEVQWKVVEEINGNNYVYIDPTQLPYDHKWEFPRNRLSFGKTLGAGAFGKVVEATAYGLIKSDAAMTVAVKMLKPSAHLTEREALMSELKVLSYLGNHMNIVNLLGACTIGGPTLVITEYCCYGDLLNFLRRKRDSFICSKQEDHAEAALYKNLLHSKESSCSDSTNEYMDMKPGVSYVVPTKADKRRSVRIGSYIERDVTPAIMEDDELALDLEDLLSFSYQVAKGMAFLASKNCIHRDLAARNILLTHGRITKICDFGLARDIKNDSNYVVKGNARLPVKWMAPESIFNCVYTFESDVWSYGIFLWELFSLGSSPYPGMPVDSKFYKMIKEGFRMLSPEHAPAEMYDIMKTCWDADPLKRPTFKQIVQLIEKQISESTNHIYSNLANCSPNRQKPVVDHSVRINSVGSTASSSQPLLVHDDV
Experimental: as §1, §2

PDGFR A = PDGFR A (Homo sapiens, UniProt P16234); experiment: SelectScreen biochemical kinase profiling; type: binding
Chain of PDGFR A (P16234 24-1089): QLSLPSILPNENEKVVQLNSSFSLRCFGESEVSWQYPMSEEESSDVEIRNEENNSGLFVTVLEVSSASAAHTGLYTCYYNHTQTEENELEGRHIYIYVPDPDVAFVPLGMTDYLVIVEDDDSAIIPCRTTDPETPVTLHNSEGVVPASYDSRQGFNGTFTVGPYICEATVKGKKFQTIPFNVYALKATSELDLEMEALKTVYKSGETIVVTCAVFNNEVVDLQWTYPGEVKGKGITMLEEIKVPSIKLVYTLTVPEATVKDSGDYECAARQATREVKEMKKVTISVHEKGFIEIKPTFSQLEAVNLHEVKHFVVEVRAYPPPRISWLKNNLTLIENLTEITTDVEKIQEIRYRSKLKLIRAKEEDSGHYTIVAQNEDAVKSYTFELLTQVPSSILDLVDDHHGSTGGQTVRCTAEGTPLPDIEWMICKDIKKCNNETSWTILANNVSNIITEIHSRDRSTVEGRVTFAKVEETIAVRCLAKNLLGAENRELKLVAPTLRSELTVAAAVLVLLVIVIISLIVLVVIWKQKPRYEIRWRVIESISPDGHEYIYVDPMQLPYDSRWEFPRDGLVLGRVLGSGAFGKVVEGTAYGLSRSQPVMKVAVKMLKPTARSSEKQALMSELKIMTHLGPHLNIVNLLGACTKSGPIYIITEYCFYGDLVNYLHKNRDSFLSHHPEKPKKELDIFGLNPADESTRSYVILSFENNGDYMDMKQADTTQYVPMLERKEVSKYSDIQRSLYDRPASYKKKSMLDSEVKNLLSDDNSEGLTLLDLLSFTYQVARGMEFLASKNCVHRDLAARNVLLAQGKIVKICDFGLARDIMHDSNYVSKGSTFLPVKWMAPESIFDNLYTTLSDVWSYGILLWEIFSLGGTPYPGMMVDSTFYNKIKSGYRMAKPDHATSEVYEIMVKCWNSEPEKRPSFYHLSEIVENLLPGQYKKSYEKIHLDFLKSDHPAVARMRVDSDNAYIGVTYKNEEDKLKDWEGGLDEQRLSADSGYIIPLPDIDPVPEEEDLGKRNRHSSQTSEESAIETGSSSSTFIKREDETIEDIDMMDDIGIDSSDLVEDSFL
Experimental: as §1, §2

PDGFR B = PDGFR B (Homo sapiens, UniProt P09619); experiment: SelectScreen biochemical kinase profiling; type: binding
Chain of PDGFR B (P09619 33-1106): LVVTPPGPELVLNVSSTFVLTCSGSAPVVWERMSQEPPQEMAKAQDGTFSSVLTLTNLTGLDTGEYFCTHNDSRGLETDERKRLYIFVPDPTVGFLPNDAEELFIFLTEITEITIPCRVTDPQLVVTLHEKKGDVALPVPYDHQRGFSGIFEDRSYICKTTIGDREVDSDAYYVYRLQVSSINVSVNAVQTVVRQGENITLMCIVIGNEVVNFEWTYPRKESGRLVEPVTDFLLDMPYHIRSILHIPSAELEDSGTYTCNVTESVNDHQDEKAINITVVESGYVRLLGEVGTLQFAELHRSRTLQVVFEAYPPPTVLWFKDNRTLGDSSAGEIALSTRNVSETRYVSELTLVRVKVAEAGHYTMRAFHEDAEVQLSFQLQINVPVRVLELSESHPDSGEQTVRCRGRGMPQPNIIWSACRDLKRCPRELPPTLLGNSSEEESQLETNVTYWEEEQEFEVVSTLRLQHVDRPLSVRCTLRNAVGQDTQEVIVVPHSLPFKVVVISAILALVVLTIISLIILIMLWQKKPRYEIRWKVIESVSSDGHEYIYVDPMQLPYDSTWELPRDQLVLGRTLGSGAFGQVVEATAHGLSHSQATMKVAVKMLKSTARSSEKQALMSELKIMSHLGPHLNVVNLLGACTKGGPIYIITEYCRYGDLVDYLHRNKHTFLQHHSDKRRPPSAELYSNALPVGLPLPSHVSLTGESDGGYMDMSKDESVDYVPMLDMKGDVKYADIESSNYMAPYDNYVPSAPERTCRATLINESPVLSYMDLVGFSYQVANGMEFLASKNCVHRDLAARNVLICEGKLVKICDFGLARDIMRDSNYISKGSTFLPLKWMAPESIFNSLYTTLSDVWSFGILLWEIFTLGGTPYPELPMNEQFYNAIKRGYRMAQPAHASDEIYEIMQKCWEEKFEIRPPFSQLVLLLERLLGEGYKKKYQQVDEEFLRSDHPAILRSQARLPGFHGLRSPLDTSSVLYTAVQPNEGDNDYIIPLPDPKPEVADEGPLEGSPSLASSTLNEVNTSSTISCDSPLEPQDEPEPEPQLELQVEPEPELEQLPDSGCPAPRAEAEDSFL
Experimental: as §1, §2

RET = RET (Homo sapiens, UniProt P07949); experiment: SelectScreen biochemical kinase profiling; type: binding; conditions: 100 nM, read-out: Inhibition (% of control) at 100 nM
Experimental: as §1, §2

SRC = SRC (Homo sapiens, UniProt P12931); experiment: SelectScreen biochemical kinase profiling; type: binding
Chain of SRC (P12931 whole entry): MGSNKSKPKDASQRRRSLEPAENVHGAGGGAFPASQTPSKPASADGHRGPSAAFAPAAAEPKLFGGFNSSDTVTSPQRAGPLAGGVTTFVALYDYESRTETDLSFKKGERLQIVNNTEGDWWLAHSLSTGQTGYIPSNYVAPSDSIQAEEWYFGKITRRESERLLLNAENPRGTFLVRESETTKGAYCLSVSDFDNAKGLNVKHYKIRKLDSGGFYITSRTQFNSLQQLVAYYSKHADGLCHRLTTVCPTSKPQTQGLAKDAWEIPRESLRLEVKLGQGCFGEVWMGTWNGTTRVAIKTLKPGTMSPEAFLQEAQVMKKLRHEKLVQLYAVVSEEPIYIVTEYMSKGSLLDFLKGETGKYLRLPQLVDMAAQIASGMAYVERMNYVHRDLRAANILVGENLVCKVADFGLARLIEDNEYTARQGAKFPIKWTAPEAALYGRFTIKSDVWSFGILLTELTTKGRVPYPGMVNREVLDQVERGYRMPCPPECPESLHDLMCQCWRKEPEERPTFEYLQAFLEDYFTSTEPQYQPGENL
Experimental: as §1, §2

VEGFR2 = VEGFR2 (Homo sapiens, UniProt P35968); experiment: SelectScreen biochemical kinase profiling; type: binding
Chain of VEGFR2 (P35968 20-1356): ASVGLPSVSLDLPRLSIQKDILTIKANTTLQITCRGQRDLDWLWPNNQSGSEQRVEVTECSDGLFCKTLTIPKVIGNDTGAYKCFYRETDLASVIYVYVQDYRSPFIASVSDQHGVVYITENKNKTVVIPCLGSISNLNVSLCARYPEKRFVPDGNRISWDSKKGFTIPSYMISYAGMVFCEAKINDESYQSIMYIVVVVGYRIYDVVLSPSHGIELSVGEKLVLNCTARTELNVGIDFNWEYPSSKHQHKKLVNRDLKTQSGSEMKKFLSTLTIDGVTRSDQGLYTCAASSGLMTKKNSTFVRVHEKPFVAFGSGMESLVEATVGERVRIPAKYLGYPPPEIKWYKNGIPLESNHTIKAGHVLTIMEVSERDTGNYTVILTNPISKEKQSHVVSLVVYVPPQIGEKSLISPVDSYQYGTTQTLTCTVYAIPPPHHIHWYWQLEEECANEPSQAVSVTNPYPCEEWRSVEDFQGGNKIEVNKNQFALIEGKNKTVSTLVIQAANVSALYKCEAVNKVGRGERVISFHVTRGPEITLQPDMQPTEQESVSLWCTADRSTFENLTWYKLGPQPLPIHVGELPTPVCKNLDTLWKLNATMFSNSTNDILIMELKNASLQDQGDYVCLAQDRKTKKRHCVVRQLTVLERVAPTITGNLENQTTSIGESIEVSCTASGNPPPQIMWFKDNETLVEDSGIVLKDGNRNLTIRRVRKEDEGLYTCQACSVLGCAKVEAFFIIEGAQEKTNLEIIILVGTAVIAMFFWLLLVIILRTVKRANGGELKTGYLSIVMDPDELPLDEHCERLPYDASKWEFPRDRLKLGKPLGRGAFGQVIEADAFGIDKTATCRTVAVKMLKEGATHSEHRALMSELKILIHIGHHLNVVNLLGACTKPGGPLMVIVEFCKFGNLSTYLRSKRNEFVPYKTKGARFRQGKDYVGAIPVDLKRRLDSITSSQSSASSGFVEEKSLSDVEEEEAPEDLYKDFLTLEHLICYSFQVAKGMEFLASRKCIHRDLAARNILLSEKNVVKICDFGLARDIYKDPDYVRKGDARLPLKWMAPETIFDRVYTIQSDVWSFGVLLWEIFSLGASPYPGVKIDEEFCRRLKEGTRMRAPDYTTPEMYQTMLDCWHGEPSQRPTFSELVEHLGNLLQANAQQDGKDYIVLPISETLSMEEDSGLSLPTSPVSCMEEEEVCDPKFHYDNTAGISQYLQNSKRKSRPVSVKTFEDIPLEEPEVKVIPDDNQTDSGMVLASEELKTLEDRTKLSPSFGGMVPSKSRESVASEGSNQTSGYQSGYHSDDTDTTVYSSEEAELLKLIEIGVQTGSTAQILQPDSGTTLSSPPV
Experimental: as §1, §2

32D-ITD/D835F cells = experiment: MTS cell viability, 32D cells expressing FLT3-ITD mutant; type: cell-based, Murine; conditions: 72-h incubation
Excerpt: (§3) The five leukemic 32D cell lines were purchased from American Type Culture Collection (ATCC, Manassas, Va., USA). Murine pro-B lymphocyte 32D cell lines were stably transfected with expression vectors that encoded human FLT3 containing an ITD mutation (32D-ITD cells), ITD and D835Y (32D-ITD/D835Y cells), ITD and D835V (32D-ITD/D835V cells), ITD and D835F (32D-ITD/D835F cells), and ITD and F691L (32D-ITD/F691L cells) mutations, which lead to constitutive activation of the FLT3 downstream signaling proteins. The cell viability was assessed with the MTS assay described in PLoS One, 2014, 9, e97116. 32D-ITD/D835Y, 32D-ITD/D835V, 32D-ITD/D835F, 32D-ITD/F691L, and 32D-ITD/F691I cells were seeded in 96-well plates at 1×10^4 cells/mL (100 μL per well) for 24-h incubation. Test compounds (at various concentrations in dimethyl sulfoxide (DMSO) were subsequently added to the culture medium for 72-h incubation. The cell viability was determined by the MTS assay (Promega, Madison, Wis., USA).

32D-ITD/F691I cells = experiment: as above; type: cell-based, Murine; conditions: Mus musculus, 32D, 72 h, 72-h incubation
Excerpt: as §3

32D-ITD/F691L cells = experiment: as above; type: cell-based, Murine; conditions: Mus musculus, 32D, 72 h, 72-h incubation
Excerpt: as §3

Colo205 xenografts = experiment: Xenograft efficacy, Colo205 model; type: in vivo; conditions: Colo205 xenografts in nude mice; PO 50 mg/kg, 5 times a week for 2 weeks; 50 mg/kg
Experimental: (§4) Male nude mice (Nu-Fox1^nu) of 8 weeks old were purchased from BioLASCO (Taipei, Taiwan, R.O.C.). Human colorectal Colo205, pancreatic Mia-PaCa 2 tumor cells or MOLM-13, 32D-ITD/D835Y leukemia cells were inoculated subcutaneously at 1×10^6 cells each in the nude mice. All human cancer cells were detected as free of Mycoplasma spp before they were injected into animals. The tumor cells grow as xenograft tumors and the tumor size reached approximately 200-250 mm^3 in the nude mice ready for dose treatments. Test compounds were dissolved in 20% 2-hydroxypropy-β-cyclodextrin individually for oral gavage administrations to the nude mice. The tumor-bearing mice were treated with test compounds at various doses, 5 times a week for 2 weeks. Tumor sizes were measured by an electronic caliper and calculated with the formula: tumor size=length×width^2/2. Tumor size and animal body weight were measured twice a week before and after the tumor cell inoculation throughout the observation period. Uses of animals and experimental procedures thereof were approved by the Institutional Animal Care and Use Committee (IACUC) of the National Health Research Institutes.

[1] = tested on: xenografts colo205 nude mice; experiment: In vivo toxicity study, colo205 model
Experimental: as §4, with “All human cancer cells were detected as free of Mycoplasma spp before they were injected into animals.” left out
Nine weeks old athymic nu/nu nude mice were administered orally at a once daily dose of 25, 50, 100, or 150 mg/kg on days 1-5 and 8-12.

[2] = 100 nM, read-out: Inhibition (% of control) at 100 nM
[3] = read-out: IC50 value (number in the bracket)

Compound `CCc1cc(NC(=O)Nc2ccc(-c3cnc(Nc4cc(N5CCN(CCO)CC5)nc(C)n4)s3)cc2)no1` [Compound 1, 1-(5-Ethylisoxazol-3-yl)-3-(4-(2-((6-(4-(2-hydroxyethyl)piperazin-1-yl)-2-methylpyrimidin-4-yl)amino)thiazol-5-yl)phenyl)urea] has an inhibition at 0.1 µM (ABL1) of 81%, an inhibition at 0.1 µM (ABL1 T315I) of 65% and an inhibition at 0.1 µM (KIT; [2]) of 66%. It also gave an IC50 (KIT; [3]) of 41 nM, an inhibition at 0.1 µM (PDGFR A; [2]) of 95% and an IC50 (PDGFR A; [3]) of 9 nM. The inhibition at 0.1 µM (PDGFR B; [2]) was 82%, the IC50 (PDGFR B; [3]) was 19 nM and the inhibition at 0.1 µM (RET) was 96%. The inhibition at 0.1 µM (SRC; [2]) was 96%, the IC50 (SRC; [3]) was 6 nM and the inhibition at 0.1 µM (VEGFR2; [2]) was 95%. The IC50 (VEGFR2; [3]) was 19 nM, the GI50 (32D-ITD/D835F cells) was 3.2 nM and the GI50 (32D-ITD/D835F cells; Mus musculus, 32D, 72 h) was < 6 nM. The GI50 (32D-ITD/F691I cells) was 45 nM, the GI50 (32D-ITD/F691L cells) was 8.5 nM and the “Day 18 TGI” value (Colo205 xenografts) was >80%. For the same compound, the “Mortality (nude mice n = 6)” value ([1]; PO 50 mg/kg once daily, 5 on 2 off × 2) was 0/6 (50 mg/kg) and the Tolerability ([1]; PO once daily, Compounds 1, 2, 3, 4, 6 at 50, 50, 100, 150 and 25 mg/kg) was “well tolerated”.
